Laboratory results taken from US20170273985A1, “TRICYCLIC DERIVATIVE” (Sunovion Pharmaceuticals Inc., priority 2014, published 2017).

Biological target: PDE1B (Homo sapiens, UniProt Q01064)
Test: In vitro HTRF PDE1 inhibition assay (PDE1B)
Type: biochemical
From the text: An exemplary procedure for the in vitro Homogenous Time Resolved Fluorescence assay, which can be used to determine the inhibitory action of compounds of the invention toward PDE1 or its isoforms, follows. The HTRF PDE1 assay utilized the HTRF (Homogenous Time Resolved Fluorescence) technology, which is based on the competition between unlabeled cyclic nucleotide and cyclic nucleotide labeled with XL665 for the binding to cyclic nucleotide-specific antibody labeled with cryptate. The HTRF signal is thus inversely proportional to the concentration of cyclic nucleotide being measured. Since phosphodiesterases break down cyclic nucleotides the HTRF signal was used to determine PDE activity. The Cisbio cGMP HTRF assay kit (Cat no: 62GM2PEC) was utilized. Cyclic GMP was diluted to 200 nM in HTRF assay buffer (1 mM CaCl2, 10 mM MgCl2, 10 mM Tris-HCl, 0.1% BSA, pH 7.4). 10 μl of compound or DMSO was diluted in 200 nM cyclic GMP solution and added to wells of a 96 well white plate to give 100 nM cyclic GMP in 1% DMSO final concentration. PDE (1A3, 1B or IC) was diluted to 2× working concentration in HTRF assay buffer with 2 μg/ml calmodulin, and 10 μl was added to initiate the reaction. The plate was then incubated for 45 minutes at 37° C. d2-Labelled cyclic GMP and anti-cGMP cryptate were diluted in 50 mM phosphate buffer, 0.8 M KF, 1% Triton X100, 0.2% BSA, pH 7.0. Following incubation 10 μl d2-cGMP, then 10 μl anti cGMP cryptate were added to each well and the plate was incubated for 45 minutes at room temperature. The plate was then read on Perkin Elmer Victor at 2 different FRET readings ex/emm 340 nm/665 nm and 340 nm/615 nm. Compounds having an IC50 of <1 μM, are denoted as +++. Compounds having an IC50 of 1−10 μM, are denoted as ++. Compounds having an IC50 of 10-100 μM, are denoted as +.

| Compound | IC50 (Table 22) | IC50 (Table 25) |
| --- | --- | --- |
| 2-(4-chlorophenyl)-8-isopropyl-2H-imidazo[1,5-f]oxazolo[2,3-c][1,2,4]triazin-5(3H)-one [Example 133] | < 1000 nM | – |
| CCCN1c2nn3c(C4CCOCC4)ncc3c(=O)n2CC1c1ccc(OC)cc1 (racemic) [Example 67] | < 1000 nM | – |
| CN1c2nn3c(C4CCOCC4)ncc3c(=O)n2CC1c1ccc(Cl)cc1 (racemic) [Example 68] | < 1000 nM | – |
| O=c1c2cnc(C3CCOCC3)n2nc2n1CCN2CC1CC1(F)F (racemic) [Example 176] | – | < 1000 nM |
| CCc1ccc(C2Cn3c(nn4c(C(C)C)ncc4c3=O)N2CC)cn1 (single isomer, unassigned) [Example 94] | < 1000 nM | – |
| CC(C)c1ncc2c(=O)n3c(nn12)N(Cc1ccccc1)CCC3 [Example 2, 1-Benzyl-9-isopropyl-1,2,3,4-tetrahydro-6H-imidazo[5,1-f]pyrimido[2,1-c][1,2,4]triazin-6-one] | < 1000 nM | – |
| CC(C)c1ncc2c(=O)n3c(nn12)N(CC1CCOCC1)C(C)CC3 (centres unmarked) [Example 3, 11-Methyl-10-(oxan-4-ylmethyl)-6-(propan-2-yl)-1,5,7,8,10-pentaazatricyclo[7,4,0,0,3,7]trideca-3,5,8-trien-2-one] | < 1000 nM | – |
| CC(C)c1ncc2c(=O)n3c(nn12)N(CCC1CCOCC1)CC3 [Example 4] | < 1000 nM | – |
| CC(C)c1ncc2c(=O)n3c(nn12)N(CCCC1CCOCC1)CC3 [Example 5] | < 1000 nM | – |
| COCCCN1CCn2c1nn1c(C(C)C)ncc1c2=O [Example 6] | < 1000 nM | – |
| COCCCCN1CCn2c1nn1c(C(C)C)ncc1c2=O [Example 7] | < 1000 nM | – |
| COCCCCCN1CCn2c1nn1c(C(C)C)ncc1c2=O [Example 8] | < 1000 nM | – |
| CC(C)c1ncc2c(=O)n3c(nn12)N(CCc1ccccn1)CC3 [Example 10] | < 1000 nM | – |
| CC(C)c1ncc2c(=O)n3c(nn12)N(CCCc1cccnc1)CC3 [Example 12] | < 1000 nM | – |
| CC(C)c1ncc2c(=O)n3c(nn12)N(CCCc1ccncc1)CC3 [Example 13] | < 1000 nM | – |
| CC(C)c1ncc2c(=O)n3c(nn12)N(C)CCC3 [Example 14] | < 1000 nM | – |
| CCCN1CCCn2c1nn1c(C(C)C)ncc1c2=O [Example 15] | < 1000 nM | – |
| CCCCN1CCCn2c1nn1c(C(C)C)ncc1c2=O [Example 17] | < 1000 nM | – |
| CCCCCN1CCCn2c1nn1c(C(C)C)ncc1c2=O [Example 18] | < 1000 nM | – |
| CC(C)CCN1CCCn2c1nn1c(C(C)C)ncc1c2=O [Example 19] | < 1000 nM | – |
| CC(C)c1ncc2c(=O)n3c(nn12)N(CCC1CC1)CCC3 [Example 20] | < 1000 nM | – |
| CC(C)c1ncc2c(=O)n3c(nn12)N(CCC1CCC(F)(F)CC1)CCC3 [Example 21] | < 1000 nM | – |
| CC(C)c1ncc2c(=O)n3c(nn12)N(CCOC(F)(F)F)CCC3 [Example 22] | < 1000 nM | – |
| COCCN1CCCn2c1nn1c(C(C)C)ncc1c2=O [Example 23] | < 1000 nM | – |
| CC(C)c1ncc2c(=O)n3c(nn12)N(CCN1CCOCC1)CCC3 [Example 26] | < 1000 nM | – |

| Compound | IC50 (Table 22) | IC50 (Table 25) |
| --- | --- | --- |
| CC(C)c1ncc2c(=O)n3c(nn12)N(CCCN1CCOCC1)CCC3 [Example 27] | < 1000 nM | – |
| CC(C)c1ncc2c(=O)n3c(nn12)N(CC(=O)N1CCOCC1)CCC3 [Example 28] | 1000 to 10000 nM | – |
| CC(C)c1ncc2c(=O)n3c(nn12)N(CCCC1CCOCC1)CCC3 [Example 29] | < 1000 nM | – |
| CC(C)c1ncc2c(=O)n3c(nn12)N(Cc1ccc(Cl)cc1)CCC3 [Example 31] | < 1000 nM | – |
| CC(C)c1ncc2c(=O)n3c(nn12)N(Cc1cccc(C(F)(F)F)c1)CCC3 [Example 32] | < 1000 nM | – |
| CC(C)c1ncc2c(=O)n3c(nn12)N(Cc1cccc(Cl)c1)CCC3 [Example 33] | < 1000 nM | – |
| CC(C)c1ncc2c(=O)n3c(nn12)N(Cc1ccc(C(F)(F)F)cc1)CCC3 [Example 34] | < 1000 nM | – |
| CC(C)c1ncc2c(=O)n3c(nn12)N(Cc1ccncc1)CCC3 [Example 35] | < 1000 nM | – |
| CC(C)c1ncc2c(=O)n3c(nn12)N(Cc1cccnc1)CCC3 [Example 36] | < 1000 nM | – |
| CC(C)c1ncc2c(=O)n3c(nn12)N(Cc1cccc(C#N)c1)CCC3 [Example 37] | < 1000 nM | – |
| CC(C)c1ncc2c(=O)n3c(nn12)N(CCc1ccc(C#N)cc1)CCC3 [Example 38] | < 1000 nM | – |
| CC(C)c1ncc2c(=O)n3c(nn12)N(CCCc1ccncc1)CCC3 [Example 39] | < 1000 nM | – |
| CC(C)c1ncc2c(=O)n3c(nn12)N(CCCc1cccnc1)CCC3 [Example 40] | < 1000 nM | – |
| CC(C)c1ncc2c(=O)n3c(nn12)N(CCc1ccncc1)CCC3 [Example 41] | < 1000 nM | – |
| CC(C)c1ncc2c(=O)n3c(nn12)N(CCc1cccnc1)CCC3 [Example 42] | < 1000 nM | – |
| CC(C)c1ncc2c(=O)n3c(nn12)N(CCc1ccccc1F)CCC3 [Example 43] | < 1000 nM | – |
| CC(C)c1ncc2c(=O)n3c(nn12)N(CCc1cccc(F)c1)CCC3 [Example 44] | < 1000 nM | – |
| CC(C)c1ncc2c(=O)n3c(nn12)N(CCc1ccc(F)cc1)CCC3 [Example 45] | < 1000 nM | – |
| CC(C)c1ncc2c(=O)n3c(nn12)N(CCCc1ccccc1F)CCC3 [Example 46] | < 1000 nM | – |
| CC(C)c1ncc2c(=O)n3c(nn12)N(CCCc1ccc(F)cc1)CCC3 [Example 47] | < 1000 nM | – |
| COc1ccccc1CCCN1CCCn2c1nn1c(C(C)C)ncc1c2=O [Example 48] | < 1000 nM | – |
| COc1cccc(CCCN2CCCn3c2nn2c(C(C)C)ncc2c3=O)c1 [Example 49] | < 1000 nM | – |
| COc1ccc(CCCN2CCCn3c2nn2c(C(C)C)ncc2c3=O)cc1 [Example 50] | 1000 to 10000 nM | – |
| CC(C)c1ncc2c(=O)n3c(nn12)N(CC1CCOCC1)CCCC3 [Example 51] | < 1000 nM | – |
| CC(C)c1ncc2c(=O)n3c(nn12)N(Cc1ccc(C#N)cc1)CCCC3 [Example 52] | < 1000 nM | – |

| Compound | IC50 (Table 22) | IC50 (Table 25) |
| --- | --- | --- |
| CCCCN1CCn2c1nn1c(C3CCOCC3)ncc1c2=O [Example 53] | < 1000 nM | – |
| O=c1c2cnc(C3CCOCC3)n2nc2n1CCN2CCC1CCCC1 [Example 54] | < 1000 nM | – |
| O=c1c2cnc(C3CCOCC3)n2nc2n1CCN2CCc1ccc(F)cc1 [Example 57] | < 1000 nM | – |
| N#Cc1ccc(CCN2CCn3c2nn2c(C4CCOCC4)ncc2c3=O)cc1 [Example 58] | < 1000 nM | – |
| N#Cc1cccc(CN2CCCn3c2nn2c(C4CCOCC4)ncc2c3=O)c1 [Example 60] | < 1000 nM | – |
| N#Cc1ccc(CN2CCCn3c2nn2c(C4CCOCC4)ncc2c3=O)cc1 [Example 61] | 1000 to 10000 nM | – |
| O=c1c2cnc(C3CCOCC3)n2nc2n1CCCN2CCc1ccccc1 [Example 62] | < 1000 nM | – |
| O=c1c2cnc(C3CCOCC3)n2nc2n1CCCN2CCCc1ccccc1 [Example 63] | < 1000 nM | – |
| CC1CN(Cc2ccc(C#N)cc2)c2nn3c(C(C)C)ncc3c(=O)n2C1 (centres unmarked) [Example 65] | < 1000 nM | – |
| CCCN1c2nn3c(C4CCOCC4)ncc3c(=O)n2CC[C@@H]1c1ccc(Cl)cc1 [Example 71] | < 1000 nM | – |
| CC(C)c1ncc2c(=O)n3c(nn12)N(C)C(c1ccc(Cl)cc1)CC3 (centres unmarked) [Example 72] | < 1000 nM | – |
| CC(C)n1ncc2c(=O)n3c(nc21)N(CC1CCOCC1)CC3 [Example 73] | < 1000 nM | – |
| CC(C)n1ncc2c(=O)n3c(nc21)N(Cc1ccc(C#N)cc1)CC3 [Example 74] | < 1000 nM | – |
| CC(C)n1ncc2c(=O)n3c(nc21)N(Cc1ccc(-c2cccc(F)n2)cc1)CC3 [Example 76] | < 1000 nM | – |
| CC(C)CN1CCCn2c1nc1c(cnn1C(C)C)c2=O [Example 77] | < 1000 nM | – |
| CC(C)n1ncc2c(=O)n3c(nc21)N(Cc1ccc(C(F)(F)F)cc1)CCC3 [Example 80] | < 1000 nM | – |
| CC(C)c1ncnc2c(=O)n3c(nc12)N(Cc1ccc(C#N)cc1)CC3 [Example 82] | < 1000 nM | – |
| CC(C)c1ncnc2c(=O)n3c(nc12)N(Cc1ccc(C(F)(F)F)cc1)CC3 [Example 83] | < 1000 nM | – |
| CC(C)c1ncc2c(=O)n3c(nn12)N(C)[C@@H](c1ccc(Cl)cn1)C3 [Example 84, (R)-2-(5-Chloropyridin-2-yl)-8-isopropyl-1-methyl-2,3-dihydrodiimidazo[2,1-c:1′,5′-f][1,2,4]triazin-5(1H)-one] | < 1000 nM | – |
| CC(C)c1ncc2c(=O)n3c(nn12)N(C)[C@H](c1ccc(Cl)cn1)C3 [Example 85, (S)-2-(5-Chloropyridin-2-yl)-8-isopropyl-1-methyl-2,3-dihydrodiimidazo[2,1-c:1′,5′-f][1,2,4]triazin-5(1H)-one] | < 1000 nM | – |
| COc1ccc(C2Cn3c(nn4c(C5CCOCC5)ncc4c3=O)N2C)cc1 (centres unmarked) [Example 86] | < 1000 nM | – |
| COc1ccc(C2Cn3c(nn4c(C5CCOCC5)ncc4c3=O)N2C)cc1 (centres unmarked) [Example 87] | 1000 to 10000 nM | – |
| CCc1ccc(C2Cn3c(nn4c(C5CCOCC5)ncc4c3=O)N2CC)cn1 (centres unmarked) [Example 88] | < 1000 nM | – |
| CCc1ccc([C@@H]2Cn3c(nn4c(C5CCOCC5)ncc4c3=O)N2CC)cn1 [Example 89] | 1000 to 10000 nM | – |
